These results are taken from US5763442A, “Anti-parasitic activity” (Universiteit Van Pretoria, priority 1995, dated 1998).

By inhibition is commonly meant the drop in the measured response relative to a control, in per cent.

One data set deals with P. falciparum (RB-1). As to the kind of experiment: Direct antimalarial activity, flow cytometry, strain RB-1. To be noted: for activity against the malaria microorganism Plasmodium falciparum: summary statement; for inhibition at 0.5 µg/mL: Plasmodium falciparum, 0.5 μg/ml, 48 h, FIG. 2, read-out: inhibition of growth of P. falciparum. It counts as cell-based, Plasmodium falciparum. The protocol:
To investigate the direct antimalarial activity of the riminophenazines B669, B4100, B4103, B4112, B4121, B4158 and B4169 against a laboratory strain of P. falciparum the following experiment was done:
A laboratory strain of P. falciparum (RB-1; obtained from Dr B L Sharp, National Malaria Research Programme, MRC, Durban) was maintained.
For these experiments malaria cultures of haematocrit 5.0% and initial parasitemia 2.0% were used. The malaria infected erythrocytes (ring stage) were incubated in microtitre plates with serial dilutions of B669, B4100, B4103, B4112, B4121, B4158 and B4169 (0.125-2 μg/ml) for 48 hours and processed for analysis on the flow cytometer as described in Example 3.
In general terms: In flow cytometry, cells or beads pass a laser one at a time.

Another data set deals with P. falciparum (FAC 8). Nature of the data set: Flow cytometry parasitaemia, chloroquine resistant strain FAC 8, chloroquine with/without B4112. Type of data set: cell-based, Plasmodium falciparum. The protocol: To test the activity of B4112 to reverse chloroquine resistance in Plasmodium falciparum, the following experiment was done:
A chloroquine resistant strain of P. falciparum (FAC 8) was obtained from Dr P Smith, University of Cape Town (originally from Dr A F Cowman, Royal Melbourne Hospital, Victoria, Australia).
Malaria infected erythrocytes (ring stage) were diluted with human O-positive red blood cells together with RPMI containing 44 mg/l hypoxanthine and 10% human type A serum to a parasitaemia of 2% and a haematocrit of 5%. This suspension was incubated in a gassed desiccator (5% O2, 5% CO2 and 90% N2) with serial dilutions of chloroquine ranging from 61-500 nM in 96-well microtitre culture plates for 48 hours in the presence or absence of a fixed concentration of B4112 (100 ng/ml). Relevant solvent controls were included.
At the end of the incubation period, 100 μl of the medium was removed from each well and replaced with a fixation solution containing 10 mM TRIS, 10 mM Na-Azide and 150 mM Na Cl. The plates were stored overnight at 4° C. and then 25 μl aliquots from each well were stained in test tubes with 0.5 ml thiazole orange at a concentration of 0.25 μg/ml in phosphate-buffered saline (PBS). After an incubation period of 1 hour at room temperature (in the dark), the tubes were placed on ice and the level of parasitaemia determined by flow cytometry using a Coulter Epics Profile II (Coulter Electronics Ltd, Hialeah, PLA, USA).

Data set [1] has as its system Plasmodium falciparum (Fab-9). Nature of the data set: Microscopic parasitaemia, chloroquine sensitive strain Fab-9 (reversal of chloroquine resistance). Type of data set: cell-based. Conditions: 24 h. The protocol:
(§1) The activity of riminophenazines to reverse chloroquine resistance in Plasmodium falciparum was tested in the following manner:
(§2) A preliminary series of experiments were carried out using two laboratory strains of P. falciparum (RB-1 and Fab-9). These strains were obtained from the Medical Research Council, Durban, where they were characterised as being either mildly resistant or sensitive to chloroquine. The isolates were maintained in suspension culture in known manner (as described by Freese J A, Markus M B and Golenser J, 1991; Bulletin of the World Health Organization 69: 707-712).
(§3) Infected erythrocytes were diluted with human O-positive red blood cells to a parasitaemia of 0.2-0.9% and suspended to 3% in RPMI containing 44 mg/l hypoxanthine and 10% human type O serum. Aliquots (100 μl) of the suspension were dispensed into the wells of 96-well microtitre plates. To these suspensions 100 μl of the medium were added containing either chloroquine or B669 alone or in combination. The final drug concentrations were 31, 62, 125, 250 500 and 1000 nM for chloroquine and 0.125, 0.25, 0.5 and 1.0 μg/ml for B669. Relevant solvent controls were included. The plates were incubated for 24 hours at 38° C. in a desiccator gassed with 5% O2, 5% CO2 and 90% N2. Thin blood smears were prepared from each well, stained with Giemsa stain and the percentage of red blood cells infected by at least one parasite determined microscopically.

Data set [2] deals with Plasmodium falciparum (RB-1). As to the kind of experiment: Microscopic parasitaemia, chloroquine resistant strain RB-1 (reversal of chloroquine resistance). Type of data set: cell-based. Conditions: 24 h. The protocol: as §1, §2, §3
Data set [3] has as its system Plasmodium falciparum (Fab-9). As to the kind of experiment: 3H-hypoxanthine uptake, chloroquine sensitive strain Fab-9. It counts as cell-based. Conditions: Plasmodium falciparum, read-out: PERCENTAGE INHIBITION (3H-hypoxanthine uptake). The protocol:
(§4) The following experiment was done to confirm previous results which were obtained microscopically and details of which are set out in Example 1.
(§5) For this experiment the same two strains of P. falciparum, as used in Example 1 (RB-1 and Fab-9) were again used. Infected erythrocytes were diluted with human O-positive red blood cells to a parasitaemia of 0.2-0.9% and suspended to 3% in RPMI containing 44 mg/l hypxanthine and 10% human type serum. Aliquots (100 μl) of the suspension were dispensed into the wells of 96-well microtitre plates. To these suspensions 100 μl of the medium were added containing either chloroquine or B669 alone or a combination of chloroquine and B669. Relevant solvent controls were included. Negative control wells were also included containing uninfected red blood cells. The plates were incubated at 38° C. in a desiccator gassed with 5% O2, 5% CO2 and 90% N2. After 24 hours 100 μl culture medium of each well was replaced with […] of hypoxathine--free medium containing 10% human serum and 0,5μ Ci^3 H-hypoxanthine and incubated for a further 18 hours. The contents of the wells were then harvested on to glass fibre filters. The filters were washed with distilled water, dried, haemoglobin dissolved in a sodium bicarbonate solution and placed in scintillation vials containing 4 ml scintillation fluid and counted for 5 min in a liquid scintillation counter.
(§6) The percentage inhibition was calculated as follows: [formula] where CPM was the mean of two values of counts per minute for each treatment.

Data set [4] deals with Plasmodium falciparum (RB-9). Nature of the data set: 3H-hypoxanthine uptake, chloroquine resistant strain (RB-9 [sic]). Type of data set: cell-based. To be noted: Plasmodium falciparum, read-out: PERCENTAGE INHIBITION (3H-hypoxanthine uptake). How it is done:
as §4, §5, §6

Data set [5] deals with Plasmodium falciparum (RB-9). The data set is described as above. Type of data set: cell-based. To be noted: read-out: PERCENTAGE INHIBITION (3H-hypoxanthine uptake).
A further data set has as its system malaria parasites. Conditions: background, cited from earlier work.

On to `CC1(C)CC(N=c2cc3n(-c4ccc(Cl)c(Cl)c4)c4ccccc4nc-3cc2Nc2ccc(Cl)c(Cl)c2)CC(C)(C)N1` [Compound B4100, N,5-bis(3,4-dichlorophenyl)-3,5-dihydro-3-[(2',2',6',6'-tetramethyl-4-piperidyl)-imino]-2-phenazinamine], for which the “activity against the malaria microorganism Plasmodium falciparum” value (“activity” below) in the data set with P. falciparum (RB-1) is “good activity”.
On to `CC1(C)CC(N=c2cc3n(-c4ccc(C(F)(F)F)cc4)c4ccccc4nc-3cc2Nc2ccc(C(F)(F)F)cc2)CC(C)(C)N1` [Compound B4103, N,5-bis(4-trifluoromethylphenyl)-3,5-dihydro-3[(2',2',6',6'-tetramethyl-4-piperidyl)imino]-2-phenazinamine], for which the inhibition at 0.5 µg/mL in the data set on P. falciparum (RB-1) is over 50%.
As to `CC1(C)CC(N=c2cc3n(-c4cccc(Cl)c4)c4ccccc4nc-3cc2Nc2cccc(Cl)c2)CC(C)(C)N1` [Compound B4112, N,5-bis(3-chlorophenyl)-3,5-dihydro-3-[(2',2',6',6'-tetramethyl-4-piperidyl)-imino]-2-phenazinamine], the “sensitivity of P. falciparum to chloroquine (inhibition)” value in the data set on P. falciparum (FAC 8) (B4112 100 ng/ml + chloroquine 125 nM, FIG. 1) worked out at 100%. For the same compound, in the data set on P. falciparum (FAC 8) (B4112 per se 100 ng/ml, 48 h), the “inhibition of parasite growth” value was determined as 27%. In addition, the “interaction of B4112 and chloroquine” value with P. falciparum (FAC 8) (FAC 8) is given as “clearly interacted synergistically”. In addition, in the data set with P. falciparum (RB-1), the inhibition at 0.5 µg/mL was over 50% and the “activity” value is given as “good activity”.
On to `CC1(C)CC(N=c2cc3n(-c4cc(Cl)cc(Cl)c4)c4ccccc4nc-3cc2Nc2cc(Cl)cc(Cl)c2)CC(C)(C)N1` [Compound B4121, N,5-bis(3,5-dichlorophenyl)-3,5-dihydro-3-[(2',2',6',6'-tetramethyl-4-piperidyl)-imino]-2-phenazinamine], for which the “activity” value with P. falciparum (RB-1) is on record as “good activity”.
With `CC(C)c1ccc(Nc2cc3nc4ccccc4n(-c4ccc(C(C)C)cc4)c-3cc2=NC2CC(C)(C)NC(C)(C)C2)cc1` [Compound B4158, N,5-bis(4-isopropylphenyl)-3,5-dihydro-3-[(2',2',6',6'-tetramethyl-4-piperidyl)-imino]-2-phenazinarnine], in the data set with P. falciparum (RB-1), the inhibition at 0.5 µg/mL was over 50% and the “activity” value is recorded as “good activity”.
For the compound `CCN(CC)CCCC(C)Nc1ccnc2cc(Cl)ccc12` (centres unmarked) [chloroquine, reference compound], the “Percentage red blood cells infected with P. falciparum (Fab-9)” value in data set [1] (chloroquine 31 nM alone) turned out to be 4.9%; in data set [1] (chloroquine 62 nM alone), 3.9%; in data set [1] (chloroquine 125 nM alone, *parasites morphologically abnormal), 2.4%; in data set [1] (chloroquine 250 nM alone, *parasites morphologically abnormal) it was 3.1%; in data set [1] (chloroquine 500 nM alone, *parasites morphologically abnormal) it was 0.1%; in data set [1] (chloroquine 1000 nM alone), 0%. The “Percentage red blood cells infected with P. falciparum (RB-1)” value is listed as 3.5% in data set [2] (chloroquine 31 nM alone); 3.3% in data set [2] (chloroquine 62 nM alone); 3.3% in data set [2] (chloroquine 125 nM alone); 3.1% in data set [2] (chloroquine 250 nM alone); 3.0% in data set [2] (chloroquine 500 nM alone); 0.4% in data set [2] (chloroquine 1000 nM alone). The figures for the inhibition at 0.031 µM in data set [3] and in data set [4] were 52.5% and 0%, respectively. The results for the inhibition at 0.062 µM in data set [3] and in data set [4] were 23.5% and 0%, respectively. Moreover, the inhibition at 0.125 µM in data set [3] was 48.7%; in data set [4], 8%; in the data set on P. falciparum (FAC 8) (Plasmodium falciparum, read-out: sensitivity of P. falciparum to chloroquine (inhibition)) it was 33%. Further, the inhibition at 0.25 µM stood at 66.9% in data set [3] and 33% in data set [4]. Further, the inhibition at 0.5 µM in data set [3] and in data set [5] was 100% in each case. The inhibition at 1 µM in data set [3] and in data set [4] was 100% each time. Further, in the data set with P. falciparum (FAC 8) (Plasmodium falciparum, 48 h, read-out: concentration at which chloroquine per se inhibited the growth of the parasite), the minimal effective concentration was at least 0.25 µM.
For the compound `COc1ccc(CCN(C)CCCC(C#N)(c2ccc(OC)c(OC)c2)C(C)C)cc1OC` (centres unmarked) [verapamil], the “reversal of Pg H1-mediated chloroquine resistance” value in the data set on malaria parasites is recorded as “can be reversed”. Further, in the data set on malaria parasites (in vivo), the “side effects of the dose required to reverse resistance” value is “severe side effects in vivo”.
